Measurements reported in paper PMC9150124, “Design of a Potent, Selective, and Brain-Penetrant Inhibitor of Wnt-Deactivating Enzyme Notum by Optimization of a Crystallographic Fragment Hit” (Journal of Medicinal Chemistry, 2022).
Read-outs that look alike come from different tables or passages of the source.

Key:
[1] = molecular target: kinase named in conditions (Homo sapiens, UniProt P11802); experiment: SelectScreen kinase profiling, SSBK Adapta SP Technology; type: biochemical
[2] = molecular target: kinase named in conditions (Homo sapiens, UniProt P42336, E542K); experiment: as above; type: biochemical; conditions: PIK3CA E542K/PIK3R1 (p110 alpha E542K/p85 alpha), 10 μM
[3] = molecular target: kinase named in conditions (Homo sapiens, UniProt Q9UBF8); experiment: as above; type: biochemical; conditions: PI4KB (PI4K beta), 10 μM
[4] = molecular target: kinase named in conditions (Homo sapiens, UniProt P48426); experiment: as above; type: biochemical; conditions: PIP4K2A, 10 μM
[5] = molecular target: kinase named in conditions (Homo sapiens, UniProt O14986); experiment: as above; type: biochemical; conditions: PIP5K1B, 10 μM
kinase named in conditions (Homo sapiens, UniProt O14986), sequence (O14986 whole entry): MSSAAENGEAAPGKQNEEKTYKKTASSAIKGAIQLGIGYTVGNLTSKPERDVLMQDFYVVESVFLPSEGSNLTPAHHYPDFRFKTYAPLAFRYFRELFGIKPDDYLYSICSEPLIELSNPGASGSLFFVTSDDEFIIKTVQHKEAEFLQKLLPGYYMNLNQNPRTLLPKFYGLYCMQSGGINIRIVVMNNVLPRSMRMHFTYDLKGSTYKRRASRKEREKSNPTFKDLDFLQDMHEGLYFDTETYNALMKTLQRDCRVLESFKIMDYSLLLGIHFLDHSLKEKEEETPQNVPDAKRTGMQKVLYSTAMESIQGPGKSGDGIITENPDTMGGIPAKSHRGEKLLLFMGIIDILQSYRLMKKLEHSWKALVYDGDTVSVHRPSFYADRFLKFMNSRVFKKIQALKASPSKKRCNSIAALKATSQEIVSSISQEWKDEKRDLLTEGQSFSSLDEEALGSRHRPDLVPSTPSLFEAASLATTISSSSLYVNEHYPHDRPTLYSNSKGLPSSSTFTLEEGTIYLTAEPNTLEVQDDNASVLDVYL

[6] = molecular target: kinase named in conditions (Homo sapiens, UniProt Q00534); experiment: as above; type: biochemical; conditions: CDK6/cyclin D1, 10 μM
[7] = molecular target: kinase named in conditions (Homo sapiens, UniProt Q5S007); experiment: as above; type: biochemical; conditions: LRRK2 FL, 10 μM
NaV1.5 = molecular target: T1, NaV1.5 (Homo sapiens, UniProt Q14524); experiment: Safety47 cardiac sodium channel assay; type: cell-based
T1 construct: Eurofins (DiscoverX Safety47)
Procedure: Screening for off-target pharmacology across multiple drug target classes was performed in the DiscoverX Safety47 panel as the SAFETYscan E/IC50 ELECT service by Eurofins (San Diego CA, U.S.A.). Assay information and data are presented in the Supporting Information.

in vivo = experiment: in vivo; design: species or system mouse
Procedure: Mouse pharmacokinetic (PK) data was generated at Charles River Laboratories (Groningen, Netherlands) and GVK
Biosciences (Hyderabad, India). Rat PK was performed by WuXi AppTec (Shanghai, China).
Animal Testing Declaration: All in life phase studies were conducted in accordance with local Ethics Review
process. See, statements from each company.

[8] = molecular target: kinase named in conditions (Homo sapiens, UniProt Q9HAZ1); experiment: SelectScreen kinase profiling, SSBK LanthaScreen Binding SP Technology; conditions: CLK4, 10 μM
Procedure: (§1) Kinase selectivity screening was performed by Thermo Fisher Scientific (Paisley, U.K.) in their SelectScreen Biochemical Kinase Profiling Service. Assay information and data are presented in the Supporting Information.
(§2) Kinase selectivity screening was performed by ThermoFisher Scientific (Paisley, U.K.) in their SelectScreenTM
(§3) Biochemical Kinase Profiling service .
(§4) Illustration reproduced courtesy of Cell Signaling technology, Inc.
(§5) (B) Illustration of phylogenetic tree of kinases screened.

[9] = molecular target: kinase named in conditions (Homo sapiens, UniProt Q13873); experiment: as above; conditions: BMPR2, 10 μM
kinase named in conditions (Homo sapiens, UniProt Q13873), sequence (Q13873 27-1038): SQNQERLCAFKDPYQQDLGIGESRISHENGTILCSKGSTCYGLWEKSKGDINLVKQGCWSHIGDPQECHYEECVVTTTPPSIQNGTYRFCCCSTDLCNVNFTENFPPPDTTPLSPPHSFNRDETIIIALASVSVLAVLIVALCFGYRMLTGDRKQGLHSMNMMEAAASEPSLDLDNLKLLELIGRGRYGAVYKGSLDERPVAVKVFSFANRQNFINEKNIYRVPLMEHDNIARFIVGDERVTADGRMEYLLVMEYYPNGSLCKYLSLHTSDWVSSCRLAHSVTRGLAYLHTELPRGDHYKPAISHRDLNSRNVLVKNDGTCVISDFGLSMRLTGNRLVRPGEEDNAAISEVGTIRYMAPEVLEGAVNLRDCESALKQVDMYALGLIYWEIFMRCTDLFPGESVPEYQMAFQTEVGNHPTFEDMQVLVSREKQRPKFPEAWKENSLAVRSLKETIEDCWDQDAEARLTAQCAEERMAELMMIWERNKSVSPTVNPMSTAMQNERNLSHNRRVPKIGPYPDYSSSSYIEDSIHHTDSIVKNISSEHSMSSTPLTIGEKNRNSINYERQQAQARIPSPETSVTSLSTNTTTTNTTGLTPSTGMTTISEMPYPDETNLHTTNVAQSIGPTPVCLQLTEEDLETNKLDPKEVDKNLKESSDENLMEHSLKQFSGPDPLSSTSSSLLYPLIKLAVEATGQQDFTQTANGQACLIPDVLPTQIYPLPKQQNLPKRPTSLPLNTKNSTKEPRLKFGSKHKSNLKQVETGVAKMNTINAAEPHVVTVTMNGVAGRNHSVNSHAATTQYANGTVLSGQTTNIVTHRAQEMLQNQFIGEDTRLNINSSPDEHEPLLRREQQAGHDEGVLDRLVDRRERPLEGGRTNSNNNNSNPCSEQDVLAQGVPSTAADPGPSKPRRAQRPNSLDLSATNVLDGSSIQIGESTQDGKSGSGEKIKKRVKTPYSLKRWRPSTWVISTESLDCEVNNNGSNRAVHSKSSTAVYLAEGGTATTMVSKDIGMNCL
Procedure: as §1, §2, §3, §4, §5

[10] = molecular target: kinase named in conditions (Homo sapiens, UniProt Q96GX5); experiment: as above; conditions: MASTL, 10 μM
Procedure: as §1, §2, §3, §4, §5

[11] = molecular target: kinase named in conditions (Homo sapiens, UniProt Q15835); experiment: as above; conditions: GRK1, 10 μM
kinase named in conditions (Homo sapiens, UniProt Q15835), sequence (Q15835 whole entry): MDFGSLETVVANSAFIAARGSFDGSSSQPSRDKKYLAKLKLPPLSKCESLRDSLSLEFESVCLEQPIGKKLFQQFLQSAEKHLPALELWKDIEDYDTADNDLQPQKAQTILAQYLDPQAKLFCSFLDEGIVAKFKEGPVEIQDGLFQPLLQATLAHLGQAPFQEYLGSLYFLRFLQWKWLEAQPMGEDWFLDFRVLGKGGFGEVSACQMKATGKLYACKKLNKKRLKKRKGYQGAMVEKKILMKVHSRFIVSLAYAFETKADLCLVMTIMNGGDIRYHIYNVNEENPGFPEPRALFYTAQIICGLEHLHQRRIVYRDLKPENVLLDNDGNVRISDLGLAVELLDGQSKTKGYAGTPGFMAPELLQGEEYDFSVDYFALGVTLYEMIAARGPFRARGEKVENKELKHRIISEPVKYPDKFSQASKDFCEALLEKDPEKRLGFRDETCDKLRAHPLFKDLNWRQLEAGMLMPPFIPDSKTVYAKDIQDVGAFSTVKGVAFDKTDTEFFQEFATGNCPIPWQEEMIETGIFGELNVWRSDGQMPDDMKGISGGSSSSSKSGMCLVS
Procedure: as §1, §2, §3, §4, §5

[12] = molecular target: kinase named in conditions (Homo sapiens, UniProt Q9NRM7); experiment: as above; conditions: LATS2, 10 μM
Procedure: as §1, §2, §3, §4, §5

[13] = molecular target: kinase named in conditions (Homo sapiens, UniProt P30530, R499C); experiment: as above; conditions: AXL R499C, 10 μM
Procedure: as §1, §2, §3, §4, §5

[14] = molecular target: kinase named in conditions (Homo sapiens, UniProt Q00535); experiment: as above; conditions: CDK5 (Inactive), 10 μM
kinase named in conditions (Homo sapiens, UniProt Q00535), sequence (Q00535 whole entry): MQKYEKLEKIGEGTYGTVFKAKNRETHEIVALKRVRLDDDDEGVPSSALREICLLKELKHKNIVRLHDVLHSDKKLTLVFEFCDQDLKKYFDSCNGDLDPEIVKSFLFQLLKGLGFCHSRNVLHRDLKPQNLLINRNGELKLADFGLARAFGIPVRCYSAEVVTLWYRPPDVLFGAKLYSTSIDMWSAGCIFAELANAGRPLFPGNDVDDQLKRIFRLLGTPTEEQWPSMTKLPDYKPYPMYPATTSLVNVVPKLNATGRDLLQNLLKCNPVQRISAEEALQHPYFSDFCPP
Procedure: as §1, §2, §3, §4, §5

[15] = molecular target: kinase named in conditions (Homo sapiens, UniProt Q9H4A3); experiment: as above; conditions: WNK1, 10 μM
Procedure: as §1, §2, §3, §4, §5

[16] = molecular target: kinase named in conditions (Homo sapiens, UniProt Q02763, R849W); experiment: as above; conditions: TEK (TIE2) R849W, 10 μM
kinase named in conditions (Homo sapiens, UniProt Q02763, R849W), sequence (Q02763 23-1124 R849W): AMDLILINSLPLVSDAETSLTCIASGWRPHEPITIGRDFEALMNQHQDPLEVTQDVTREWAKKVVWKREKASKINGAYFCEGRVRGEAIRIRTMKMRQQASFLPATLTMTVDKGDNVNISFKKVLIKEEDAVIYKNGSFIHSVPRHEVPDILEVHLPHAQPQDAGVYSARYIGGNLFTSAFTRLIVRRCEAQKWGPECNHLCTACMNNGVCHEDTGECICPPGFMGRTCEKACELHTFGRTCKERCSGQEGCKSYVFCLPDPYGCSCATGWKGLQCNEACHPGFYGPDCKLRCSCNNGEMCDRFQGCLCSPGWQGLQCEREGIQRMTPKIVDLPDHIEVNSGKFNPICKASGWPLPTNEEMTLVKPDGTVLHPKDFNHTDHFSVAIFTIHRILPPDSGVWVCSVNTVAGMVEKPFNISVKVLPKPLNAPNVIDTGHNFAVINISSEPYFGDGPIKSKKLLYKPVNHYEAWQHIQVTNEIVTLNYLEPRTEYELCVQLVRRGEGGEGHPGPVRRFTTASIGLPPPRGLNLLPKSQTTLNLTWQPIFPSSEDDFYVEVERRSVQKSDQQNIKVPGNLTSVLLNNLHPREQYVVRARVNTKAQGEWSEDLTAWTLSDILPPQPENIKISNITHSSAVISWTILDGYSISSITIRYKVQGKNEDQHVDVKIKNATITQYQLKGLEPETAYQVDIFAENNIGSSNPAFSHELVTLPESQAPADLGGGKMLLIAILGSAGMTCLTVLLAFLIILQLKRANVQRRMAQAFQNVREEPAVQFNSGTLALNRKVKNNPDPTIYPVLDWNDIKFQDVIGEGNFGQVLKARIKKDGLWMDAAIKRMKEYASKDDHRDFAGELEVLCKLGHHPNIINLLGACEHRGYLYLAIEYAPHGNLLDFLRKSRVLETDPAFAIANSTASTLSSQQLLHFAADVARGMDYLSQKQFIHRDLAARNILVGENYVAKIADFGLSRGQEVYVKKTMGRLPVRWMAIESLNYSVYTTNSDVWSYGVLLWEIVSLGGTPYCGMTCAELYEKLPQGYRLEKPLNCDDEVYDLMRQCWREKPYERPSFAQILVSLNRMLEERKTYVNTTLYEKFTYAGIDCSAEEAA
Procedure: as §1, §2, §3, §4, §5

[17] = molecular target: kinase named in conditions (Homo sapiens, UniProt P10721, T670E); experiment: as above; conditions: KIT T670E, 10 μM
Procedure: as §1, §2, §3, §4, §5

[18] = molecular target: kinase named in conditions (Homo sapiens, UniProt P22607, K650M); experiment: as above; conditions: FGFR3 K650M, 10 μM
kinase named in conditions (Homo sapiens, UniProt P22607, K650M), sequence (P22607 23-806 K650M): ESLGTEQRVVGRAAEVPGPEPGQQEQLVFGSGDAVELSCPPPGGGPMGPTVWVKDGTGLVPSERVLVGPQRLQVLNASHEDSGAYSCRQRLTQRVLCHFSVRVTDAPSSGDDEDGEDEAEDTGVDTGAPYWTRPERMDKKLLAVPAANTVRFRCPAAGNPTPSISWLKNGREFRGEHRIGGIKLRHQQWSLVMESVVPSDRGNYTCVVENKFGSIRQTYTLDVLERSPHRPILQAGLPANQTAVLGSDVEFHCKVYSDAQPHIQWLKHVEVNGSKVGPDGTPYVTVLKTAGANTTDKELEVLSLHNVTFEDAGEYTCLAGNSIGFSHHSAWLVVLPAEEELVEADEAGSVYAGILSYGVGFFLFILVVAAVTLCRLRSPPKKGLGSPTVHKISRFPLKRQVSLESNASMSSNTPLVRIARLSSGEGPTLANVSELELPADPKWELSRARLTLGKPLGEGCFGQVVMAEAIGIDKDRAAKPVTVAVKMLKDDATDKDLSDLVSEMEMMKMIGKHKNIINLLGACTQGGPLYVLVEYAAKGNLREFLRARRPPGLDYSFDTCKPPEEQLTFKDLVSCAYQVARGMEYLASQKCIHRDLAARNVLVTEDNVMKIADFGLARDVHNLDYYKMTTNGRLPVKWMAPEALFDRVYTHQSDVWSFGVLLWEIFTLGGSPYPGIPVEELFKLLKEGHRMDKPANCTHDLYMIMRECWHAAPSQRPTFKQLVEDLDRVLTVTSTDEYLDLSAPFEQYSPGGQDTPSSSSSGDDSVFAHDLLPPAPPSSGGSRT
Procedure: as §1, §2, §3, §4, §5

[19] = molecular target: kinase named in conditions (Homo sapiens, UniProt P15056, V600E); experiment: as above; conditions: BRAF V599E, 10 μM
Procedure: as §1, §2, §3, §4, §5

[20] = molecular target: kinase named in conditions (Homo sapiens, UniProt P10721, A829P); experiment: as above; conditions: KIT A829P, 10 μM
Procedure: as §1, §2, §3, §4, §5

[21] = molecular target: kinase named in conditions (Homo sapiens, UniProt P54646); experiment: as above; conditions: 10 μM
kinase named in conditions (Homo sapiens, UniProt P54646), sequence (P54646 whole entry): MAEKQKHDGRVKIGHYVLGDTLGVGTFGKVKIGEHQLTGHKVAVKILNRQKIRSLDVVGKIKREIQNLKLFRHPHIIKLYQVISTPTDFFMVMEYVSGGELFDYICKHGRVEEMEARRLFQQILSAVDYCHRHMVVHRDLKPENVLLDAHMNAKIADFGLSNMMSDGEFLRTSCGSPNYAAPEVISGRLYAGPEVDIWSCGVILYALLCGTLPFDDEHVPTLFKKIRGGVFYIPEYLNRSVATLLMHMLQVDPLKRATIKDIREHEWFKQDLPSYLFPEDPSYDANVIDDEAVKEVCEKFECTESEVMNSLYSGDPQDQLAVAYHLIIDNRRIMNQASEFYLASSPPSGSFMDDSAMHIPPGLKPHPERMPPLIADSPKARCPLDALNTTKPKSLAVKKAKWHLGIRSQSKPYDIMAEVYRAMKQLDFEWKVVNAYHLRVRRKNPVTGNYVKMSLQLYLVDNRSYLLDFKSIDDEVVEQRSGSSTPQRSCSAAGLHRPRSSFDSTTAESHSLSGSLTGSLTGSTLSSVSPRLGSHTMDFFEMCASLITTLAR
Procedure: as §1, §2, §3, §4, §5

[22] = molecular target: kinase named in conditions (Homo sapiens, UniProt P06241); experiment: as above; conditions: FYN A, 10 μM
Procedure: as §1, §2, §3, §4, §5

[23] = molecular target: kinase named in conditions (Homo sapiens, UniProt P10721, Y823D); experiment: as above; conditions: KIT Y823D, 10 μM
Procedure: as §1, §2, §3, §4, §5

[24] = molecular target: kinase named in conditions (Homo sapiens, UniProt O14936); experiment: as above; conditions: CASK, 10 μM
Procedure: as §1, §2, §3, §4, §5

[25] = molecular target: kinase named in conditions (Homo sapiens, UniProt Q86UE8); experiment: as above; conditions: TLK2, 10 μM
Procedure: as §1, §2, §3, §4, §5

[26] = male C57BL6 mice, i.v. 1.0 mg/kg

FC(F)(F)c1c(Cl)ccc(-n2ccnn2)c1Cl [8l, 1-(2,4-Dichloro-3-(trifluoromethyl)phenyl)-1H-1,2,3-triazole]
inhibition at 10 µM ([1]; CDK4/cyclin D1, 10 μM): 6%
inhibition at 10 µM ([1]; CDK4/cyclin D3, 10 μM): 4%
inhibition at 10 µM [2]: 6%
inhibition at 10 µM [3]: 1%
inhibition at 10 µM [4]: -1%
inhibition at 10 µM [5]: 1%
inhibition at 10 µM [6]: -3%
inhibition at 10 µM [7]: 7%
IC50 (NaV1.5): > 30 µM
CL (in vivo; [26]): 10.4 mL/min/kg
Vdss (in vivo; [26]): 2.0 L/kg
AUC(0-inf) (in vivo; mouse, 2x30 mg/kg po, plasma): 83400 ng·h/mL
AUC(0-t) (in vivo; mouse, 2x30 mg/kg po, plasma): 82400 ng·h/mL
half-life (in vivo; mouse, 2x30 mg/kg po, plasma): 178 min
Tmax (in vivo; mouse, 2x30 mg/kg po, plasma, read-out: Tmax): 9.5 h
concentration at 10 h (in vivo; mouse, brain, po, mouse 2x30 mg/kg po, read-out: Brain concentration, individual animal): 7250 ng/g
Fo (in vivo; mouse, p.o. 10 mg/kg): 66%
brain Cmax (free drug) (in vivo; mouse, p.o. 10 mg/kg): ≈ 300 nM
Tmax (in vivo; mouse, p.o. 10 mg/kg, brain): 1.0 h
t1/2 (in vivo; mouse, p.o. 10 mg/kg, brain): 2.2 h
time brain levels maintained above 100 nM (in vivo; mouse, p.o. 10 mg/kg, free drug): ~4 h
Tmax (in vivo; mouse, p.o. 10 mg/kg, plasma): 0.5 h
concentration at 0.5 h (in vivo; mouse, plasma, po, mouse 2x30 mg/kg po, 0.5 hr, read-out: Plasma concentration, individual animal): 5090 ng/mL
concentration at 1 h (in vivo; mouse, plasma, po, mouse 2x30 mg/kg po, 1 hr, read-out: Plasma concentration, individual animal): 4920 ng/mL
concentration at 2 h (in vivo; mouse, plasma, po, mouse 2x30 mg/kg po, 2 hr, read-out: Plasma concentration, individual animal): 4000 ng/mL
concentration at 4 h (in vivo; mouse, plasma, po, mouse 2x30 mg/kg po, 4 hr, read-out: Plasma concentration, individual animal): 3180 ng/mL
concentration at 9 h (in vivo; mouse, plasma, po, mouse 2x30 mg/kg po, 9 hr, read-out: Plasma concentration, individual animal): 645 ng/mL
concentration at 9.25 h (in vivo; mouse, plasma, po, mouse 2x30 mg/kg po, 9.25 hr, read-out: Plasma concentration, individual animal): 5940 ng/mL
concentration at 9.5 h (in vivo; mouse, plasma, po, mouse 2x30 mg/kg po, 9.5 hr, read-out: Plasma concentration, individual animal): 7570 ng/mL
concentration at 10 h (in vivo; mouse, plasma, po, mouse 2x30 mg/kg po, read-out: Plasma concentration, individual animal): 6270 ng/mL
concentration at 11 h (in vivo; mouse, plasma, po, mouse 2x30 mg/kg po, 11 hr, read-out: Plasma concentration, individual animal): 6850 ng/mL
inhibition at 10 µM [8]: 3%
inhibition at 10 µM [9]: 13%
inhibition at 10 µM [10]: -8%
inhibition at 10 µM [11]: 3%
inhibition at 10 µM [12]: 7%
inhibition at 10 µM [13]: 5%
inhibition at 10 µM [14]: 1%
inhibition at 10 µM [15]: 2%
inhibition at 10 µM [16]: 19%
inhibition at 10 µM [17]: 1%
inhibition at 10 µM [18]: 2%
inhibition at 10 µM [19]: 0%
inhibition at 10 µM [20]: -3%
inhibition at 10 µM ([21]; AMPK (A2/B2/G1)): 12%
inhibition at 10 µM ([21]; AMPK (A2/B2/G2)): 24%
inhibition at 10 µM [22]: -8%
inhibition at 10 µM [23]: 6%
inhibition at 10 µM [24]: 18%
inhibition at 10 µM [25]: 11%
